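Tested at 5 concentrations; 48 h exposure; 96-well plates; endpoints linearly interpolated, else capped at highest concentration. GI50 is the concentration that inhibits growth by half. TGI: total growth inhibition.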
How the values were obtained:
Assay in all cases: NCI tumour cell line growth inhibition, 48 h
UACC-62 melanoma = test system: UACC-62 melanoma
NCI-H460 lung = test system: NCI-H460 lung
MCF7 breast = test system: MCF7 breast
MALME-3M melanoma = test system: MALME-3M melanoma
DU-145 prostate = test system: DU-145 prostate
HCT-15 colon = test system: HCT-15 colon
786-0 renal = test system: 786-0 renal
KM12 colon = test system: KM12 colon
SK-OV-3 ovarian = test system: SK-OV-3 ovarian
SR leukemia = test system: SR leukemia
OVCAR-4 ovarian = test system: OVCAR-4 ovarian
SF-268 CNS = test system: SF-268 CNS
K-562 leukemia = test system: K-562 leukemia
HOP-92 NSCLC = test system: HOP-92 NSCLC
UACC-257 melanoma = test system: UACC-257 melanoma
HS 578T breast = test system: HS 578T breast
SNB-75 CNS = test system: SNB-75 CNS
LOX IMVI melanoma = test system: LOX IMVI melanoma
HCC-2998 colon = test system: HCC-2998 colon
UO-31 renal = test system: UO-31 renal
MOLT-4 leukemia = test system: MOLT-4 leukemia
HL-60(TB) leukemia = test system: HL-60(TB) leukemia
NCI-H226 lung = test system: NCI-H226 lung
ACHN renal = test system: ACHN renal
OVCAR-8 ovarian = test system: OVCAR-8 ovarian
M14 melanoma = test system: M14 melanoma
HT29 colon = test system: HT29 colon
HOP-62 NSCLC = test system: HOP-62 NSCLC
COLO 205 colon = test system: COLO 205 colon
OVCAR-3 ovarian = test system: OVCAR-3 ovarian
NCI/ADR-RES ovarian = test system: NCI/ADR-RES ovarian
SW-620 colon = test system: SW-620 colon
RPMI-8226 leukemia = test system: RPMI-8226 leukemia
MDA-MB-231 breast = test system: MDA-MB-231 breast
HCT-116 colon = test system: HCT-116 colon
A549 NSCLC = test system: A549 NSCLC
U251 CNS = test system: U251 CNS
OVCAR-5 ovarian = test system: OVCAR-5 ovarian
TK-10 renal = test system: TK-10 renal
NCI-H522 lung = test system: NCI-H522 lung
EKVX NSCLC = test system: EKVX NSCLC
SF-539 CNS = test system: SF-539 CNS
CCRF-CEM leukemia = test system: CCRF-CEM leukemia
PC-3 prostate = test system: PC-3 prostate
NCI-H23 lung = test system: NCI-H23 lung
SF-295 CNS = test system: SF-295 CNS
IGROV1 ovarian = test system: IGROV1 ovarian
SK-MEL-5 melanoma = test system: SK-MEL-5 melanoma
CAKI-1 renal = test system: CAKI-1 renal
SK-MEL-2 melanoma = test system: SK-MEL-2 melanoma
BT-549 breast = test system: BT-549 breast
SN12C renal = test system: SN12C renal
A498 renal = test system: A498 renal
RXF 393 renal = test system: RXF 393 renal
SNB-19 CNS = test system: SNB-19 CNS
SK-MEL-28 melanoma = test system: SK-MEL-28 melanoma

Molecule `COc1ccc(/C=C\c2cc(OC)c(OC)c(OC)c2)cc1OC(=O)c1cccc(Cn2cc(CCOC(=O)[C@H](N)Cc3cn(C)c4ccccc34)nn2)c1` has a GI50 (UACC-62 melanoma) of less than 10 nM, a TGI (UACC-62 melanoma) of 24200 nM and a GI50 (NCI-H460 lung) of less than 10 nM. The TGI (NCI-H460 lung) was greater than 42800 nM, the GI50 (MCF7 breast) was 12.3 nM and the TGI (MCF7 breast) was 14000 nM. The GI50 (MALME-3M melanoma) was 81 nM, the TGI (MALME-3M melanoma) was 25600 nM and the GI50 (DU-145 prostate) was less than 10 nM. For the same molecule, the TGI (DU-145 prostate) was greater than 100000 nM, the GI50 (HCT-15 colon) was less than 10 nM and the TGI (HCT-15 colon) was greater than 44000 nM. The GI50 (786-0 renal) was 111 nM, the TGI (786-0 renal) was greater than 100000 nM and the GI50 (KM12 colon) was less than 10 nM. The TGI (KM12 colon) was 16500 nM, the GI50 (SK-OV-3 ovarian) was 455 nM and the TGI (SK-OV-3 ovarian) was greater than 100000 nM. For the same molecule, the GI50 (SR leukemia) was less than 10 nM, the TGI (SR leukemia) was 2660 nM and the GI50 (OVCAR-4 ovarian) was 208 nM. For the same molecule, the TGI (OVCAR-4 ovarian) was greater than 85400 nM, the GI50 (SF-268 CNS) was 29.6 nM and the TGI (SF-268 CNS) was greater than 100000 nM. For the same molecule, the GI50 (K-562 leukemia) was less than 10 nM, the TGI (K-562 leukemia) was greater than 22400 nM and the GI50 (HOP-92 NSCLC) was 206 nM. It also gave a TGI (HOP-92 NSCLC) greater than 88200 nM, a GI50 (UACC-257 melanoma) of 11400 nM and a TGI (UACC-257 melanoma) of 47600 nM. The GI50 (HS 578T breast) was less than 10 nM, the TGI (HS 578T breast) was greater than 100000 nM and the GI50 (SNB-75 CNS) was less than 10 nM. The TGI (SNB-75 CNS) was 29.3 nM, the GI50 (LOX IMVI melanoma) was less than 10 nM and the TGI (LOX IMVI melanoma) was 14200 nM. The GI50 (HCC-2998 colon) was 19.8 nM, the TGI (HCC-2998 colon) was 1700 nM and the GI50 (UO-31 renal) was 192 nM. It also gave a TGI (UO-31 renal) greater than 45100 nM, a GI50 (MOLT-4 leukemia) of less than 10 nM and a TGI (MOLT-4 leukemia) of 18800 nM. It also gave a GI50 (HL-60(TB) leukemia) of less than 10 nM, a GI50 (NCI-H226 lung) of less than 16.9 nM and a TGI (NCI-H226 lung) of 38900 nM. For the same molecule, the GI50 (ACHN renal) was less than 10 nM, the TGI (ACHN renal) was greater than 60700 nM and the GI50 (OVCAR-8 ovarian) was less than 10 nM. The TGI (OVCAR-8 ovarian) was greater than 100000 nM, the GI50 (M14 melanoma) was less than 10 nM and the TGI (M14 melanoma) was 16900 nM. For the same molecule, the GI50 (HT29 colon) was 379 nM, the TGI (HT29 colon) was greater than 20900 nM and the GI50 (HOP-62 NSCLC) was less than 10 nM. For the same molecule, the TGI (HOP-62 NSCLC) was greater than 100000 nM, the GI50 (COLO 205 colon) was 350 nM and the TGI (COLO 205 colon) was 1550 nM. It also gave a GI50 (OVCAR-3 ovarian) of less than 10 nM, a TGI (OVCAR-3 ovarian) of 18900 nM and a GI50 (NCI/ADR-RES ovarian) of less than 10 nM. For the same molecule, the TGI (NCI/ADR-RES ovarian) was 23500 nM, the GI50 (SW-620 colon) was less than 10 nM and the TGI (SW-620 colon) was greater than 100000 nM. For the same molecule, the GI50 (RPMI-8226 leukemia) was less than 10 nM, the TGI (RPMI-8226 leukemia) was 2230 nM and the GI50 (MDA-MB-231 breast) was less than 10 nM. The TGI (MDA-MB-231 breast) was greater than 51900 nM, the GI50 (HCT-116 colon) was less than 10 nM and the TGI (HCT-116 colon) was 38700 nM. The GI50 (A549 NSCLC) was 32.2 nM, the TGI (A549 NSCLC) was greater than 100000 nM and the GI50 (U251 CNS) was less than 10 nM. For the same molecule, the TGI (U251 CNS) was greater than 100000 nM, the GI50 (OVCAR-5 ovarian) was 88.6 nM and the TGI (OVCAR-5 ovarian) was greater than 100000 nM. The GI50 (TK-10 renal) was 25000 nM, the TGI (TK-10 renal) was greater than 100000 nM and the GI50 (NCI-H522 lung) was less than 10 nM. It also gave a TGI (NCI-H522 lung) of 29400 nM, a GI50 (EKVX NSCLC) of 53.8 nM and a TGI (EKVX NSCLC) greater than 100000 nM. It also gave a GI50 (SF-539 CNS) of less than 10 nM, a TGI (SF-539 CNS) of 272 nM and a GI50 (CCRF-CEM leukemia) of less than 10 nM. It also gave a TGI (CCRF-CEM leukemia) greater than 100000 nM, a GI50 (PC-3 prostate) of less than 10 nM and a TGI (PC-3 prostate) greater than 100000 nM. For the same molecule, the GI50 (NCI-H23 lung) was less than 10 nM, the TGI (NCI-H23 lung) was 63700 nM and the GI50 (SF-295 CNS) was 29.5 nM. For the same molecule, the TGI (SF-295 CNS) was 12500 nM, the GI50 (IGROV1 ovarian) was less than 13.6 nM and the TGI (IGROV1 ovarian) was greater than 100000 nM. For the same molecule, the GI50 (SK-MEL-5 melanoma) was less than 10 nM, the TGI (SK-MEL-5 melanoma) was 25.4 nM and the GI50 (CAKI-1 renal) was less than 13.9 nM. For the same molecule, the TGI (CAKI-1 renal) was greater than 61300 nM, the GI50 (SK-MEL-2 melanoma) was 15400 nM and the TGI (SK-MEL-2 melanoma) was greater than 83500 nM. For the same molecule, the GI50 (BT-549 breast) was less than 10 nM, the TGI (BT-549 breast) was 13300 nM and the GI50 (SN12C renal) was less than 10 nM. For the same molecule, the TGI (SN12C renal) was greater than 100000 nM, the GI50 (A498 renal) was less than 10 nM and the GI50 (RXF 393 renal) was less than 10 nM. For the same molecule, the TGI (RXF 393 renal) was 12900 nM, the GI50 (SNB-19 CNS) was less than 10 nM and the TGI (SNB-19 CNS) was greater than 100000 nM. For the same molecule, the GI50 (SK-MEL-28 melanoma) was 2690 nM and the TGI (SK-MEL-28 melanoma) was 36100 nM.
